Measured values published in patent US8466281B2, “2,5-disubstituted morpholine orexin receptor antagonists” (Merck Sharp & Dohme Corp., priority 2008, dated 2013).

Columns and labels:
orexin-2 receptor (OX2R) = target: T1, orexin-2 receptor (OX2R) (Homo sapiens, UniProt O43614); experiment: Radioligand binding assay, OX2R; details: membranes prepared from CHO cells expressing the orexin-2 (OX2) receptor
T1 construct: expressed in transfected cells; host or cells: CHO cells (membranes)
T1 sequence (O43614 1-444): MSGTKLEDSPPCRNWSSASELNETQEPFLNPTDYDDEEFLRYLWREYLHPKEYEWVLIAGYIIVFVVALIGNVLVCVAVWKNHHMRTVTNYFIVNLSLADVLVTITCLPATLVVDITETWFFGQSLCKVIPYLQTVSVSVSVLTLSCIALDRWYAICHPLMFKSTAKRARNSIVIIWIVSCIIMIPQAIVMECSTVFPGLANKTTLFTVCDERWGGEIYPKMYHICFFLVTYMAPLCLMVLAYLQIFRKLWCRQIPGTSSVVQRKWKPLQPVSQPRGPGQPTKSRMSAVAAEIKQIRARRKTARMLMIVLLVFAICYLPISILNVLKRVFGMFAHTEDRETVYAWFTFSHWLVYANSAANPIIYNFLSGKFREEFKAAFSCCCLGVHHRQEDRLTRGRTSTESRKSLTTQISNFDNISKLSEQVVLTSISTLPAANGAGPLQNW

orexin-1 receptor (OX1R) = target: T2, orexin-1 receptor (OX1R) (UniProt O43613); experiment: Radioligand binding assay, OX1R; details: membranes prepared from CHO cells expressing the orexin-1 (OX1) receptor
T2 sequence (O43613 1-425): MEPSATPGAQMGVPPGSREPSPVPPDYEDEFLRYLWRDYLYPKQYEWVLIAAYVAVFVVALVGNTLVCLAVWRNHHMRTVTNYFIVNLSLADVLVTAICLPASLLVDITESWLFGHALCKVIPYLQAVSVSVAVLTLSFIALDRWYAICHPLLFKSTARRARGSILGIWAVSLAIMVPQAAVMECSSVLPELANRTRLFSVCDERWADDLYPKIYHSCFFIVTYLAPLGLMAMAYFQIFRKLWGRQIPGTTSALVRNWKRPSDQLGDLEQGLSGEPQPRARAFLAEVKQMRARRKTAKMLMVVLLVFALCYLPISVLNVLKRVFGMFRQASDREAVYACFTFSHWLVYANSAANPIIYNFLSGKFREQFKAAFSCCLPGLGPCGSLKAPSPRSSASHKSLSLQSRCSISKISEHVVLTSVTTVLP

Compound	Ki (orexin-2 receptor (OX2R))	Ki (orexin-1 receptor (OX1R))
Cc1ccc(-n2nccn2)c(C(=O)N2C[C@H](COc3ccc(Br)cn3)OC[C@H]2C)c1 [A-10]	1.3 nM	21 nM
Cc1ccc(-n2nccn2)c(C(=O)N2C[C@H](COc3nccc4ccccc34)OC[C@H]2C)c1 [A-9, 1-({(2R,5R)-5-methyl-4-[5-methyl-2-(2H-1,2,3-triazol-2-yl)benzoyl]morpholin-2-yl}methoxy)isoquinoline]	–	23 nM
Cc1ccc(-n2nccn2)c(C(=O)N2C[C@H](COc3nccc4ccccc34)OC[C@H]2C)c1 [A-11, 1-({(2R,5R)-5-methyl-4-[5-methyl-2-(2H-1,2,3-triazol-2-yl)benzoyl]morpholin-2-yl}methoxy)isoquinoline]	–	2.2 nM

Next, values leading:

Ki (orexin-2 receptor (OX2R))	Ki (orexin-1 receptor (OX1R))	Compound
39 nM	17 nM	Cc1ccc(-n2nccn2)c(C(=O)N2C[C@H](COc3ccnc4ccccc34)OC[C@H]2C)c1 [A-12, 4-({(2R,5R)-5-methyl-4-[5-methyl-2-(2H-1,2,3-triazol-2-yl)benzoyl]morpholin-2-yl}methoxy)quinoline]
8.3 nM	720 nM	Cc1ccc(-n2nccn2)c(C(=O)N2C[C@H](COc3ncccc3C)OC[C@H]2C)c1 [A-13, (2R,5R)-5-methyl-2-{[(3-methylpyridin-2-yl)oxy]methyl}-4-[5-methyl-2-(2H-1,2,3-triazol-2-yl)benzoyl]morpholine]
